US10125118B2, “Heteroaryl compounds and their use as therapeutic drugs” (Dong-A Socio Holdings Co., Ltd., priority 2015, dated 2018)
pIC50: −log10 of the molar value.

What follows are molecules tested against human c-MER catalytic domain (Homo sapiens (Human), UniProt Q12866) (assay: LanthaScreen TR-FRET kinase assay, c-MER). Conditions: read-out: Mer TK inhibition (IC50); Biochemical IC50, TR-FRET, 10 uM ATP.
human c-MER catalytic domain, sequence (Q12866 587-858): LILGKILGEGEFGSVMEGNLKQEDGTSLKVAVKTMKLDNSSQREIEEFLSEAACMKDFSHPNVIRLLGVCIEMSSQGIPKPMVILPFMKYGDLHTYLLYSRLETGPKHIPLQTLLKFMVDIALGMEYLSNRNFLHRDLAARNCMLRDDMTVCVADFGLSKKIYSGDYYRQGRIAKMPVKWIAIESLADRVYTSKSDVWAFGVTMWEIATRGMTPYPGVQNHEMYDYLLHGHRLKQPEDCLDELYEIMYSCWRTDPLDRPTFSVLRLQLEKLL

SMILES	pIC50
C[C@H](COCc1ccc(Cl)c(Cl)c1)NC(=O)c1cc(-c2cnn(C)c2)cnc1N [Example 104, (R)-2-amino-N-(1-((3,4-dichlorobenzyl)oxy)propan-2-yl)-5-(1-methyl-1H-pyrazol-4-yl)nicotinamide]	< 6.00
COc1cccc(COC[C@@H](C)NC(=O)c2cc(-c3cnn(C)c3)cnc2N)c1 [Example 106, (R)-2-amino-N-(1-((3-methoxybenzyl)oxy)propan-2-yl)-5-(1-methyl-1H-pyrazol-4-yl)nicotinamide]	< 6.00
COc1cccc(CO[C@@H](C)CNC(=O)c2cc(-c3cnn(C)c3)cnc2N)c1 [Example 107, (S)-2-amino-N-(2-((3-methoxybenzyl)oxy)propyl)-5-(1-methyl-1H-pyrazol-4-yl)nicotinamide]	< 6.00
CC[C@H](COCc1ccccc1)NC(=O)c1cc(-c2cnn(C)c2)cnc1N [Example 108, (R)-2-amino-N-(1-(benzyloxy)butan-2-yl)-5-(1-methyl-1H-pyrazol-4-yl)nicotinamide]	< 6.00
CC(C)[C@@H](COCc1ccccc1)NC(=O)c1cc(-c2cnn(C)c2)cnc1N [Example 109, (S)-2-amino-N-(1-(benzyloxy)-3-methylbutan-2-yl)-5-(1-methyl-1H-pyrazol-4-yl)nicotinamide]	< 6.00
CC(C)[C@H](COCc1ccccc1)NC(=O)c1cc(-c2cnn(C)c2)cnc1N [Example 110, (R)-2-amino-N-(1-(benzyloxy)-3-methylbutan-2-yl)-5-(1-methyl-1H-pyrazol-4-yl)nicotinamide]	< 6.00
CC(C)C[C@@H](COCc1ccccc1)NC(=O)c1cc(-c2cnn(C)c2)cnc1N [Example 111, (S)-2-amino-N-(1-(benzyloxy)-4-methylpentan-2-yl)-5-(1-methyl-1H-pyrazol-4-yl)nicotinamide]	< 6.00
CC(C)C[C@H](COCc1ccccc1)NC(=O)c1cc(-c2cnn(C)c2)cnc1N [Example 112, (R)-2-amino-N-(1-(benzyloxy)-4-methylpentan-2-yl)-5-(1-methyl-1H-pyrazol-4-yl)nicotinamide]	< 6.00
Cn1cc(-c2cnc(N)c(C(=O)N[C@@H](COCc3ccccc3)C3CCCCC3)c2)cn1 [Example 113, (R)-2-amino-N-(2-(benzyloxy)-1-cyclohexylethyl)-5-(1-methyl-1H-pyrazol-4-yl)nicotinamide]	< 6.00
Cn1cc(-c2cnc(N)c(C(=O)N[C@@H](CO)C3CCCCC3)c2)cn1 [Example 114, (R)-2-amino-N-(1-cyclohexyl-2-hydroxyethyl)-5-(1-methyl-1H-pyrazol-4-yl)nicotinamide]	< 6.00
Cn1cc(-c2cnc(N)c(C(=O)N[C@H](COCc3ccccc3)c3ccccc3)c2)cn1 [Example 115, (S)-2-amino-N-(2-(benzyloxy)-1-phenylethyl)-5-(1-methyl-1H-pyrazol-4-yl)nicotinamide]	< 6.00
Cn1cc(-c2cnc(N)c(C(=O)N[C@@H](COCc3ccccc3)c3ccccc3)c2)cn1 [Example 116, (R)-2-amino-N-(2-(benzyloxy)-1-phenylethyl)-5-(1-methyl-1H-pyrazol-4-yl)nicotinamide]	< 6.00
Cn1cc(-c2cnc(N)c(C(=O)N[C@H](COCc3ccccc3)Cc3ccccc3)c2)cn1 [Example 117, (S)-2-amino-N-(1-(benzyloxy)-3-phenylpropan-2-yl)-5-(1-methyl-1H-pyrazol-4-yl)nicotinamide]	< 6.00
Cn1cc(-c2cnc(N)c(C(=O)N[C@@H](COCc3ccccc3)Cc3ccccc3)c2)cn1 [Example 118, (R)-2-amino-N-(1-(benzyloxy)-3-phenylpropan-2-yl)-5-(1-methyl-1H-pyrazol-4-yl)nicotinamide]	< 6.00
C[C@H](COCC1CCC1)NC(=O)c1cc(-c2cnn(C)c2)cnc1N [Example 119, (R)-2-amino-N-(1-(cyclobutylmethoxy)propan-2-yl)-5-(1-methyl-1H-pyrazol-4-yl)nicotinamide]	< 6.00
COC(=O)[C@H](COCc1ccccc1)NC(=O)c1cc(-c2cnn(C)c2)cnc1N [Example 120, methyl N-(2-amino-5-(1-methyl-1H-pyrazol-4-yl)nicotinoyl)-O-benzyl-L-serinate]	< 6.00
COC(=O)[C@@H](NC(=O)c1cc(-c2cnn(C)c2)cnc1N)[C@@H](C)OCc1ccccc1 [Example 121, methyl N-(2-amino-5-(1-methyl-1H-pyrazol-4-yl)nicotinoyl)-O-benzyl-L-threoninate]	< 6.00
CNC(=O)[C@@H](NC(=O)c1cc(-c2cnn(C)c2)cnc1N)[C@@H](C)OCc1ccccc1 [Example 122, 2-amino-N-((2S,3R)-3-(benzyloxy)-1-(methylamino)-1-oxobutan-2-yl)-5-(1-methyl-1H-pyrazol-4-yl)nicotinamide]	< 6.00

SMILES	pIC50
CCCNC(=O)[C@@H](NC(=O)c1cc(-c2cnn(C)c2)cnc1N)[C@@H](C)OCc1ccccc1 [Example 123, 2-amino-N-((2S,3R)-3-(benzyloxy)-1-oxo-1-(propylamino)butan-2-yl)-5-(1-methyl-1H-pyrazol-4-yl)nicotinamide]	< 6.00
C[C@@H](OCc1ccccc1)[C@H](NC(=O)c1cc(-c2cnn(C)c2)cnc1N)C(=O)NC1CCCC1 [Example 124, 2-amino-N-((2S,3R)-3-(benzyloxy)-1-(cyclopentylamino)-1-oxobutan-2-yl)-5-(1-methyl-1H-pyrazol-4-yl)nicotinamide]	< 6.00
C[C@@H](OCc1ccccc1)[C@H](NC(=O)c1cc(-c2cnn(C)c2)cnc1N)C(=O)N1CCCC1 [Example 125, 2-amino-N-((2S,3R)-3-(benzyloxy)-1-oxo-1-(pyrrolidin-1-yl)butan-2-yl)-5-(1-methyl-1H-pyrazol-4-yl)nicotinamide]	< 6.00
C[C@H](NC(=O)c1cc(-c2cnn(C)c2)cnc1N)C(=O)OCc1ccccc1 [Example 126, benzyl (2-amino-5-(1-methyl-1H-pyrazol-4-yl)nicotinoyl)-L-alaninate]	< 6.00
Cn1cc(-c2cnc(N)c(C(=O)N[C@@H](CO)C(=O)OCc3ccccc3)c2)cn1 [Example 128, benzyl (2-amino-5-(1-methyl-1H-pyrazol-4-yl)nicotinoyl)-L-serinate]	< 6.00
Cn1cc(-c2cnc(N)c(C(=O)N[C@H]3CCC[C@@H]3OCc3ccccc3)n2)cn1 [Example 129, 3-amino-N-((1S,2S)-2-(benzyloxy)cyclopentyl)-6-(1-methyl-1H-pyrazol-4-yl)pyrazine-2-carboxamide]	< 6.00
Cn1cc(-c2cnc(N)c(C(=O)N[C@H]3CCCc4ccccc43)n2)cn1 [Example 131, (S)-3-amino-6-(1-methyl-1H-pyrazol-4-yl)-N-(1,2,3,4-tetrahydronaphthalen-1-yl)pyrazine-2-carboxamide]	< 6.00
Cc1c(N)cccc1-c1ccc(CO[C@H]2CCC[C@@H]2NC(=O)c2cc(-c3cnn(C)c3)cnc2N)cc1 [Example 139, 2-amino-N-((1S,2S)-2-((3′-amino-2′-methyl-[1,1′-biphenyl]-4-yl)methoxy)cyclopentyl)-5-(1-methyl-1H-pyrazol-4-yl)nicotinamide]	< 6.00
Cn1cc(-c2cnc(N)c(C(=O)N[C@H]3CCC[C@@H]3OCc3ccc(-c4cccc(CN)c4)cc3)c2)cn1 [Example 143]	< 6.00
CN1CCN(Cc2ccc(-c3ccc(CO[C@H]4CCCC[C@@H]4NC(=O)c4cc(-c5cnn(C)c5)cnc4N)cc3)cc2)CC1 [Example 166, 2-amino-5-(1-methyl-1H-pyrazol-4-yl)-N-((1S,2S)-2-((4′-((4-methylpiperazin-1-yl)methyl)-[1,1′-biphenyl]-4-yl)methoxy)cyclohexyl)nicotinamide]	< 6.00
CN1CCN(C(C)(C)c2ccc(-c3ccc(CO[C@H]4CCC[C@@H]4NC(=O)c4cccnc4N)cc3)cc2)CC1 [Example 167, 2-amino-N-((1S,2S)-2-((4′-(2-(4-methylpiperazin-1-yl)propan-2-yl)-[1,1′-biphenyl]-4-yl)methoxy)cyclopentyl)nicotinamide]	> 8.00
Cn1cc(-c2cnc(N)c(C(=O)N[C@H]3CCC[C@@H]3OCc3cccc(-c4cccc(O)c4)c3)c2)cn1 [Example 169, 2-amino-N-((1S,2S)-2-((3′-hydroxy-[1,1′-biphenyl]-3-yl)-methoxy)cyclopentyl)-5-(1-methyl-1H-pyrazol-4-yl)nicotinamide]	< 6.00
Cn1cc(-c2cnc(N)c(C(=O)N[C@H]3CCC[C@@H]3OCc3cccc(-c4cccc(N)c4)c3)c2)cn1 [Example 170, 2-amino-N-((1S,2S)-2-((3′-amino-[1,1′-biphenyl]-3-yl)methoxy)-cyclopentyl)-5-(1-methyl-1H-pyrazol-4-yl)nicotinamide]	< 6.00
Cn1cc(-c2cnc(N)c(C(=O)N[C@H]3CCC[C@@H]3OCc3cccc(-c4cccc(CO)c4)c3)c2)cn1 [Example 171, 2-amino-N-((1S,2S)-2-((3′-(hydroxymethyl)-[1,1′-biphenyl]-3-yl)-methoxy)cyclopentyl)-5-(1-methyl-1H-pyrazol-4-yl)nicotinamide]	< 6.00
CN1CCN(Cc2ccc(-c3ccc(CO[C@H]4CCC[C@@H]4NC(=O)c4cc(-c5cnn(C)c5)cnc4N)cc3)nc2)CC1 [Example 204, 2-amino-5-(1-methyl-1H-pyrazol-4-yl)-N-((1S,2S)-2-((4-(5-((4-methylpiperazin-1-yl)methyl)pyridin-2-yl)benzyl)oxy)cyclopentyl)nicotinamide]	> 8.00
CN1CCN(Cc2ccc(-c3ccc(CO[C@H]4CCC[C@@H]4NC(=O)c4cccnc4N)cc3)cc2C(F)(F)F)CC1 [Example 207, 2-amino-N-((1S,2S)-2-((4′-((4-methylpiperazin-1-yl)methyl)-3′-(trifluoromethyl)-[1,1′-biphenyl]-4-yl)methoxy)cyclopentyl)nicotinamide]	> 8.00
CC(c1ccc(-c2ccc(CO[C@H]3CCC[C@@H]3NC(=O)c3cc(Cl)cnc3N)cc2)cc1)N1CCN(C)CC1 (stereo partly drawn) [Example 231]	> 8.00
CN(C)CCCc1ccc(CO[C@H]2CCC[C@@H]2NC(=O)c2cc(-c3cnn(C)c3)cnc2N)cc1 [Example 244, 2-amino-N-((1S,2S)-2-((4-(3-(dimethylamino)propyl)benzyl)oxy)-cyclopentyl)-5-(1-methyl-1H-pyrazol-4-yl)nicotinamide]	< 6.00
